According to patent publication US20070021484A1, “Substituted N-cinnamyl benzamides” (ChemoCentryx, Inc., priority 2005, published 2007):
Counter-ions that a name gives are not always drawn.

Target: T1, CCXCKR2 receptor (Homo sapiens, UniProt P25106)
T1 construct: The compounds were combined with mammary gland cells expressing the CCXCKR2 receptor in the presence of the ^125I-labeled chemokine; host or cells: MCF-7 (endogenous receptor) and/or MDA-MB-435S stably transfected with pcDNA3.1(+)-hRDC1
Assay: Displacement of 125I-labeled SDF-1 from the CCXCKR2 receptor (radioligand binding, determination of IC50 values)
Settings: concentration displacing at least 50% of 125I SDF-1 from CCXCKR2; MCF-7 and/or CCXCKR2 transfected MDA-MB-435S cells; 3 hr at 4° C.
Description: The ability of the compounds to displace the labeled chemokine from the CCXCKR2 receptor sites at multiple concentrations was then determined with the screening process.
Compounds that were deemed effective modulators were able to displace at least 50% of the SDF-1 from the CCXCKR2 receptor at concentrations at or below 2.1 micromolar (μM), as represented by the notation (+) for certain exemplary compounds shown in Table B below, and more preferably at concentrations at or below 700 nanomolar (nM) (++). At present, especially preferred compounds can displace at least 50% of the SDF-1 from the CCXCKR2 receptor at concentrations at or below 500 nM (+++). As stated above, Exemplary compounds that met these criteria are reproduced in Table B below. All compounds were prepared as described in the Examples above, or by related methods substituting readily available starting materials.
Reagents and Cells. ^125I-labeled SDF-1 was purchased from Perkin-Elmer Life Sciences, Inc. (Boston, Mass.). The MCF-7 (adenocarcinoma; mammary gland) cell line was obtained from the American Type Culture Collection (Manassas, Va.) or and was cultured in DMEM (Mediatech, Herndon, Va.) supplemented with 10% fetal bovine serum (FBS) (HyClone Logan, Utah) and bovine insulin (0.01 mg/mL) (Sigma, St. Louis, Mo.) at 37° C. in a humidified incubator at a 5% CO2/air mixture. CCXCKR2 transfected MDA-MB-435S were produced as described below. MDA-MB-435S human breast cancer line, was purchased from ATCC, and cultured in DMEM/10% FBS medium. The complete coding sequence of the gene encoding CCXCKR2 (a.k.a.CXCR^7, hRDC1), was isolated from MCF-7 cells using μMACs mRNA isolation kit (Miltenyi Biotec, Auburn, Calif.). DNA contamination was removed by DNase digestion via RNeasy columns (Qiagen, Inc., Valencia, Calif.) and cDNA was generated using GeneAmp RNA PCR Core Kit (Applied Biosystems, Foster City, Calif.). PCR of cDNA samples was performed using Taq PCR Master Mix kit (Qiagen, Inc.) and hRDC1 primers harboring 5′ and 3′ Not I sites
Binding Analysis. Target compounds were tested to determine their ability to bind with CCXCKR2 sites on MCF-7 and/or MDA-MB-435S cells. Efficiency-maximized radioligand binding using filtration protocols as described in Dairaghi D J, et al., HHV8-encoded vMIP-I selectively engages chemokine receptor CCR5. Agonist and antagonist profiles of viral chemokines., J. Biol. Chem. 1999 Jul. 30; 274(31): 21569-74 and Gosling J, et al., Cutting edge: identification of a novel chemokine receptor that binds dendritic cell- and T cell-active chemokines including ELC, SLC, and TECK., J. Immunol. 2000 Mar. 15; 164(6):2851-6 was used.
In these assays, MCF-7 and/or MDA-MB-435S cells were interrogated with the target compounds and the ability of these compounds to displace ^125I radiolabeled SDF-1 was assessed using the protocol described in Dairaghi and Gosling. The target compounds were added to the plate to the indicated concentration and were then incubated with cells followed by the addition of radiolabeled chemokine (^125I SDF-1) for 3 hr at 4° C. in the following binding medium (25 mM HEPES, 140 mM NaCl, 1 mM CaCl2, 5 mM MgCl2 and 0.2% bovine serum albumin, adjusted to pH 7.1). All assays were then incubated for 3 hrs at 4° C. with gentle agitation. Following incubation in all binding assays, reactions were aspirated onto PEI-treated GF/B glass filters (Packard) using a cell harvester (Packard) and washed twice (25 mM HEPES, 500 mM NaCl, 1 mM CaCl2, 5 mM MgCl2, adjusted to pH 7.1). Scintillant (MicroScint 10, Packard) was added to the wells, and the filters were counted in a Packard Topcount scintillation counter. Data were analyzed and plotted using Prism (GraphPad Prism version 3.0a for Macintosh, GraphPad Software, www.graphpad.com).

T1 sequence (P25106 whole entry): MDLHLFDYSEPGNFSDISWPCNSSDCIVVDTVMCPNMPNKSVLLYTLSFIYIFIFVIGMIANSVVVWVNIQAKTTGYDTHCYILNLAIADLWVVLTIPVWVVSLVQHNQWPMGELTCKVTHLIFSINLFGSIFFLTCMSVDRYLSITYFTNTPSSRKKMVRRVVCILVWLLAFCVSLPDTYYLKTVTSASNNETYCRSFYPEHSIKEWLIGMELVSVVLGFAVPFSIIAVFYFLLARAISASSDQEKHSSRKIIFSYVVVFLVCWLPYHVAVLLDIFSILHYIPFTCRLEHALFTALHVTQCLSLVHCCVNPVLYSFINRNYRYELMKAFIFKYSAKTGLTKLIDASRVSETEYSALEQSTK

Structure (SMILES) | IC50 [nM]
COc1cc(C(=O)N(C/C(C)=C/c2ccc(F)cc2F)C[C@@H]2C[C@@H]3CCCC[C@@H]3N2)ccc1OC(F)F [Compound 3, 4-Difluoromethoxy-N-[(E)-3-(2,4-difluoro-phenyl)-2-methyl-allyl]-3-methoxy-N-[(2S,3aS,7aS)-1-(octahydro-indol-2-yl)methyl]-benzamide] | ≤ 500
COc1cc(C(=O)N(C/C(C)=C/c2ccccc2)C[C@@H]2C[C@@H]3CCCC[C@@H]3N2)cc2c1OC(C)(C)O2 [Compound 1, 7-Methoxy-2,2-dimethyl-benzo[1,3]dioxole-5-carboxylic acid (2-methyl-3-phenyl-allyl)-[(2S,6S,7S)-1-(octahydro-indol-2-yl)methyl]-amide] | ≤ 500
COc1cc(C(=O)N(C/C(C)=C/c2ccc(F)cc2F)C[C@@H]2CCCN2CC2(N(C)C)CCCC2)ccc1OC(F)F (stereo in doubt) [Compound 15, 4-Difluoromethoxy-N-[3-(2,4-difluoro-phenyl)-2-methyl-allyl]-N-[1-(1-dimethylamino-cyclopentylmethyl)-pyrrolidin-2-ylmethyl]-3-methoxy-benzamide] | ≤ 500
COc1ccc(C(=O)N(C/C(C)=C/c2ccc(F)cc2F)C[C@@H]2CCCN2C[C@H]2CC[C@@H](N)CC2)cc1OC [Compound 13, N-[1-(4-amino-cyclohexylmethyl)-pyrrolidin-2-ylmethyl]-N-[3-(2,4-difluoro-phenyl)-2-methyl-allyl]-3,4-dimethoxy-benzamide] | ≤ 500
COc1cc(C(=O)N(C/C(C)=C/c2ccccc2)C[C@@H]2C[C@@H]3CCC[C@@H]3N2)cc2c1OC(C)(C)O2 [Compound 2, 7-Methoxy-2,2-dimethyl-benzo[1,3]dioxole-5-carboxylic acid (2-methyl-3-phenyl-allyl)-[(2S,5S,6S)-1-(octahydro-cyclopenta[b]pyrrol-2-yl)methyl]-amide] | ≤ 500
COc1cc(C(=O)N(C/C(C)=C/c2ccc(F)cc2F)C[C@@H]2CCCN2C[C@H]2CC[C@@H](NS(C)(=O)=O)CC2)ccc1OC(F)F [Compound 11] | ≤ 500
COc1cc(C(=O)N(C/C(C)=C/c2ccc(F)cc2F)Cc2nccn2C)ccc1OC(F)F [Compound 18, 4-difluoromethoxy-N-[3-(2,4-difluoro-phenyl)-2-methyl-allyl]-3-methoxy-N-(1-methyl-1H-imidazol-2-ylmethyl)-benzamide] | ≤ 2100
COc1cc(C(=O)N(C/C(C)=C/c2ccc(F)cc2F)C[C@H]2CCCN2C[C@H]2CC[C@@H](N)CC2)ccc1OC(F)F [Compound 14] | ≤ 500

Results, then the molecule that gave them:

IC50 [nM] | Structure (SMILES)
≤ 500 | COc1ccc(C(=O)N(C/C(C)=C/c2ccc(F)cc2F)C[C@@H]2CCCN2C[C@H]2CC[C@H](NS(C)(=O)=O)CC2)cc1OC [Compound 9, N-(S)-[(E)-3-(2,4-Difluoro-phenyl)-2-methyl-allyl]-N-[(S)-1-(4-methanesulfonylamino-cyclohexylmethyl)-pyrrolidin-2-ylmethyl]-3,4-dimethoxy-benzamide]
≤ 500 | COc1cc(C(=O)N(C/C(C)=C/c2ccc(F)cc2F)CC2CCCN2CC2(NS(C)(=O)=O)CCCC2)ccc1OC(F)F (stereo not drawn) [Compound 17]
≤ 500 | COc1ccc(C(=O)N(C/C(C)=C/c2ccc(F)cc2F)C[C@@H]2CCCN2CC2CCC(N)CC2)cc1OC (stereo partly drawn) [Compound 10, N-[(S)-1-(4-Amino-cyclohexylmethyl)-pyrrolidin-2-ylmethyl]-N-[(E)-3-(2,4-difluoro-phenyl)-2-methyl-allyl]-3,4-dimethoxy-benzamide]
≤ 2100 | COc1ccc(C(=O)N(C/C(C)=C/c2ccc(F)cc2F)CC2CCC3COCCN32)cc1OC (stereo not drawn) [Compound 20]
≤ 500 | COc1ccc(C(=O)N(C/C(C)=C/c2ccc(F)cc2F)C[C@@H]2CCCN2C[C@H]2CC[C@@H](N)C2)cc1OC [Compound 7, N-[(S)-1-((1S,3R)-3-Amino-cyclopentylmethyl)-pyrrolidin-2-ylmethyl]-N-[(E)-3-(2,4-difluoro-phenyl)-2-methyl-allyl]-3,4-dimethoxy-benzamide]
≤ 500 | COc1ccc(C(=O)N(C/C(C)=C/c2ccc(F)cc2F)C[C@@H]2C[C@@H]3CCCC[C@@H]3N2)cc1OC [Compound 5, N-[(E)-3-(2,4-Difluoro-phenyl)-2-methyl-allyl]-3,4-dimethoxy-N-[(2S,3aS,7aS)-1-(octahydro-indol-2-yl)methyl]-benzamide]
≤ 500 | COc1cc(C(=O)N(C/C(C)=C/c2ccc(F)cc2F)C[C@@H]2C[C@@H]3CCCC[C@@H]3N2)cc2c1OC(C)(C)O2 [Compound 4, 7-Methoxy-2,2-dimethyl-benzo[1,3]dioxole-5-carboxylic acid [(E)-3-(2,4-difluoro-phenyl)-2-methyl-allyl]-[(2S,3aS,7aS)-1-(octahydro-indol-2-yl)methyl]-amide]
≤ 700 | COc1cc(C(=O)N(C/C(C)=C/c2ccc(F)cc2F)CC2CCCN2CC2(N)CCCC2)ccc1OC(F)F (stereo not drawn) [Compound 16, N-[1-(1-Amino-cyclopentylmethyl)-pyrrolidin-2ylmethyl]-4-difluoromethoxy-N-[3-(2,4-difluoro-phenyl)-2-methyl-allyl]-3-methoxy-benzamide]
≤ 500 | COc1ccc(C(=O)N(CC2=NCCN2)C/C(C)=C/c2ccc(F)cc2F)cc1OC [Compound 19, N-[(E)-3-(2,4-Difluoro-phenyl)-2-methyl-allyl]-N-(4,5-dihydro-1 H-imidazol-2-ylmethyl)-3,4-dimethoxy-benzamide hydrochloride]
≤ 500 | COc1cc(C(=O)N(C/C(C)=C/c2ccccc2)CC2CCCN2C[C@H]2CC[C@@H](NC(C)C)CC2)cc2c1OC(C)(C)O2 (stereo partly drawn) [Compound 6, Methoxy-2,2-dimethyl-benzo[1,3]dioxole-5-carboxylic acid [(S)-1-(4-isopropylamino-cyclohexylmethyl)-pyrrolidin-2-ylmethyl]-((E)-2-methyl-3-phenyl-allyl)-amide]
